Key:
giant foxtail = assay: Test B pre/postemergence giant foxtail; type: in vivo, Setaria faberii
Summary of the method: (§1)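 Response is a visual 0-to-10 score relative to untreated plants, where 0 means no effect and 10 means complete control, taken twelve to sixteen days after application. Treatments went onto soil at planting and onto foliage of 1- to 4-leaf plants, using a surfactant-containing non-phytotoxic solvent.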

purple nutsedge = assay: Test B pre/postemergence purple nutsedge; type: in vivo, Cyperus rotundus
Summary of the method: as §1

crabgrass = assay: Test B pre/postemergence crabgrass; type: in vivo, Digitaria sanguinalis
Summary of the method: as §1

velvetleaf = assay: Test B pre/postemergence velvetleaf; type: in vivo, Abutilon theophrasti
Summary of the method: as §1

bamyardgrass = assay: Test B flood test barnyardgrass; type: in vivo, Echinochloa crus-galli
Summary of the method: (§2)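 Each value is a visual injury score relative to controls, with 10 meaning complete control and 0 no effect. Evaluation took place twelve to sixteen days after the 2-leaf-stage plants were treated and kept in the greenhouse.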

surinam grass = assay: Test B pre/postemergence surinam grass; type: in vivo, Brachiaria decumbens
Summary of the method: as §1

blackgrass = assay: Test B pre/postemergence blackgrass; type: in vivo, Alopecurus myosuroides
Summary of the method: as §1

bedstraw = assay: Test B pre/postemergence bedstraw; type: in vivo, Galium aparine
Summary of the method: as §1

wheat = assay: Test B pre/postemergence wheat; type: in vivo, Triticum aestivum
Summary of the method: as §1

sugar beet = assay: Test B pre/postemergence sugar beet; type: in vivo, Beta vulgaris
Summary of the method: as §1

morningglory = assay: Test B pre/postemergence morningglory; type: in vivo, Ipomoea hederacea
Summary of the method: as §1

wild oat = assay: Test B pre/postemergence wild oat; type: in vivo, Avena fatua
Summary of the method: as §1

rice = assay: Test B flood test rice; type: in vivo, Oryza sativa
Summary of the method: as §2

pigweed = assay: Test B pre/postemergence pigweed; type: in vivo, Amaranthus retroflexus
Summary of the method: as §1

cocklebur = assay: Test B pre/postemergence cocklebur; type: in vivo, Xanthium strumarium
Summary of the method: as §1

duck salad = assay: Test B flood test duck salad; type: in vivo, Heteranthera limosa
Summary of the method: as §2

[1] = Postemergence, Rate 62 g/ha, scale 0 to 10, 0 is no effect, 10 is complete control
[2] = Postemergence, Rate 250 g/ha, scale 0 to 10, 0 no effect, 10 complete control
[3] = Preemergence, Rate 62 g/ha, scale 0 to 10 (0 no effect, 10 complete control)
[4] = Preemergence, Rate 125 g/ha, scale 0 to 10 (0 no effect, 10 complete control)
[5] = Preemergence, Rate 250 g/ha, scale of 0 to 10 where 0 is no effect and 10 is complete control
[6] = Preemergence, Rate 500 g/ha, scale 0 (no effect) to 10 (complete control)
[7] = Rate 125 g/ha, Postemergence, scale 0 to 10, 0 no effect, 10 complete control
[8] = Rate 500 g/ha, Postemergence, scale 0 to 10, 0 no effect, 10 complete control
[9] = Rate 125 g/ha, Postemergence section (flood test species), scale 0 to 10, 0 no effect, 10 complete control
[10] = Rate 500 g/ha, listed under Postemergence (flood test species), scale 0 to 10, 0 no effect, 10 complete control
[11] = flood test, listed under Postemergence, Rate 250 g/ha, scale 0 to 10, 0 no effect, 10 complete control

CN(C(=O)n1oc(=O)n(Cc2cccs2)c1=O)c1ccccc1 [Compound 83]
Giant foxtail plant response rating (giant foxtail; [1]): 0
Giant foxtail plant response rating (giant foxtail; [2]): 0
Giant foxtail plant response rating (giant foxtail; [3]): 0
Plant response rating, Giant foxtail (giant foxtail; [4]): 0
Plant response rating, Giant foxtail (giant foxtail; [5]): 0
Giant foxtail plant response rating (giant foxtail; [6]): 0
Giant foxtail plant response rating (giant foxtail; [7]): 0
Giant foxtail plant response rating (giant foxtail; [8]): 0
Nutsedge plant response rating (purple nutsedge; [1]): 0
Nutsedge plant response rating (purple nutsedge; [2]): 0
Nutsedge plant response rating (purple nutsedge; [3]): 0
Plant response rating, Nutsedge (purple nutsedge; [4]): 0
Plant response rating, Nutsedge (purple nutsedge; [5]): 0
Nutsedge plant response rating (purple nutsedge; [6]): 0
Nutsedge plant response rating (purple nutsedge; [7]): 0
Nutsedge plant response rating (purple nutsedge; [8]): 0
Crabgrass plant response rating (crabgrass; [1]): 0
Crabgrass plant response rating (crabgrass; [2]): 0
Crabgrass plant response rating (crabgrass; [3]): 0
Plant response rating, Crabgrass (crabgrass; [4]): 0
Plant response rating, Crabgrass (crabgrass; [5]): 0
Crabgrass plant response rating (crabgrass; [6]): 0
Crabgrass plant response rating (crabgrass; [7]): 0
Crabgrass plant response rating (crabgrass; [8]): 0
Velvetleaf plant response rating (velvetleaf; [1]): 0
Velvetleaf plant response rating (velvetleaf; [2]): 2
Velvetleaf plant response rating (velvetleaf; [3]): 0
Plant response rating, Velvetleaf (velvetleaf; [4]): 0
Plant response rating, Velvetleaf (velvetleaf; [5]): 0
Velvetleaf plant response rating (velvetleaf; [6]): 0
Velvetleaf plant response rating (velvetleaf; [7]): 2
Velvetleaf plant response rating (velvetleaf; [8]): 4
Barnyardgrass plant response rating (bamyardgrass; [1]): 0
Barnyardgrass plant response rating (bamyardgrass; [9]): 0
Barnyardgrass plant response rating (bamyardgrass; [10]): 0
Barnyardgrass plant response rating (bamyardgrass; [11]): 0
B. signalgrass plant response rating (surinam grass; [1]): 0
B. signalgrass plant response rating (surinam grass; [2]): 0
B. signalgrass plant response rating (surinam grass; [3]): 0
Plant response rating, B. signalgrass (surinam grass; [4]): 0
Plant response rating, B. signalgrass (surinam grass; [5]): 0
B. signalgrass plant response rating (surinam grass; [6]): 0
B. signalgrass plant response rating (surinam grass; [7]): 0
B. signalgrass plant response rating (surinam grass; Rate 500 g/ha, Postemergence, scale of 0 to 10 where 0 is no effect and 10 is complete control): 0
Blackgrass plant response rating (blackgrass; [1]): 0
Blackgrass plant response rating (blackgrass; [2]): 0
Blackgrass plant response rating (blackgrass; [3]): 0
Plant response rating, Blackgrass (blackgrass; [4]): 0
Plant response rating, Blackgrass (blackgrass; [5]): 0
Blackgrass plant response rating (blackgrass; [6]): 0
Blackgrass plant response rating (blackgrass; [7]): 0
Blackgrass plant response rating (blackgrass; [8]): 0
Bedstraw plant response rating (bedstraw; [1]): 0
Bedstraw plant response rating (bedstraw; [2]): 0
Bedstraw plant response rating (bedstraw; [3]): 0
Plant response rating, Bedstraw (bedstraw; [4]): 0
Plant response rating, Bedstraw (bedstraw; [5]): 0
Bedstraw plant response rating (bedstraw; [6]): 0
Bedstraw plant response rating (bedstraw; [7]): 0
Bedstraw plant response rating (bedstraw; [8]): 0
Wheat plant response rating (wheat; [1]): 0
Wheat plant response rating (wheat; [2]): 0
Wheat plant response rating (wheat; [3]): 0
Plant response rating, Wheat (wheat; [4]): 0
Plant response rating, Wheat (wheat; [5]): 0
Wheat plant response rating (wheat; [6]): 0
Wheat plant response rating (wheat; [7]): 0
Wheat plant response rating (wheat; [8]): 0
Sugarbeets plant response rating (sugar beet; [1]): 0
Sugarbeets plant response rating (sugar beet; [2]): 0
Sugarbeets plant response rating (sugar beet; [3]): 0
Plant response rating, Sugarbeets (sugar beet; [4]): 0
Plant response rating, Sugarbeets (sugar beet; [5]): 0
Sugarbeets plant response rating (sugar beet; [6]): 0
Sugarbeets plant response rating (sugar beet; [7]): 0
Sugarbeets plant response rating (sugar beet; [8]): 0
Morningglory plant response rating (morningglory; [1]): 0
Morningglory plant response rating (morningglory; [2]): 0
Morningglory plant response rating (morningglory; [3]): 0
Plant response rating, Morningglory (morningglory; [4]): 0
Plant response rating, Morningglory (morningglory; [5]): 0
Morningglory plant response rating (morningglory; [6]): 0
Morningglory plant response rating (morningglory; [7]): 0
Morningglory plant response rating (morningglory; [8]): 0
Wild oats plant response rating (wild oat; [1]): 0
Wild oats plant response rating (wild oat; [2]): 0
Wild oats plant response rating (wild oat; [3]): 0
Plant response rating, Wild oats (wild oat; [4]): 0
Plant response rating, Wild oats (wild oat; [5]): 0
Wild oats plant response rating (wild oat; [6]): 0
Wild oats plant response rating (wild oat; [7]): 0
Wild oats plant response rating (wild oat; [8]): 0
Rice plant response rating (rice; [1]): 0
Rice plant response rating (rice; [9]): 0
Rice plant response rating (rice; [10]): 0
Rice plant response rating (rice; [11]): 0
Redroot pigweed plant response rating (pigweed; [1]): 0
Redroot pigweed plant response rating (pigweed; [2]): 0
Redroot pigweed plant response rating (pigweed; [3]): 0
Plant response rating, Redroot pigweed (pigweed; [4]): 0
Plant response rating, Redroot pigweed (pigweed; [5]): 0
Redroot pigweed plant response rating (pigweed; [6]): 0
Redroot pigweed plant response rating (pigweed; [7]): 0
Redroot pigweed plant response rating (pigweed; [8]): 0
Cocklebur plant response rating (cocklebur; [1]): 0
Cocklebur plant response rating (cocklebur; [2]): 1
Cocklebur plant response rating (cocklebur; [3]): 0
Plant response rating, Cocklebur (cocklebur; [4]): 0
Plant response rating, Cocklebur (cocklebur; [5]): 0
Cocklebur plant response rating (cocklebur; [6]): 0
Cocklebur plant response rating (cocklebur; [7]): 0
Cocklebur plant response rating (cocklebur; [8]): 1
Ducksalad plant response rating (duck salad; [1]): 0
Ducksalad plant response rating (duck salad; [9]): 0
Ducksalad plant response rating (duck salad; [10]): 0
Ducksalad plant response rating (duck salad; [11]): 0

Reference: US6737383B1, “Herbicidal oxadiazolidines” (priority 1999, dated 2004)
